This passage reports IC50 results from US8580786B2, “Triazine derivatives and their therapeutical applications” (Nant Holdings IP, LLC, priority 2006, dated 2013).

The test concerns MX-1 (human breast carcinoma) cells. The test is described as follows: Cytotoxicity assay (Promega CellTiter Blue Cell Viability Assay), in vitro growth inhibition. The following applies: MX1, MX-1 cells, 72 hrs exposure to compound, CellTiter Blue fluorescence readout, read-out: IC50 (μM), cytotoxicity of triazine derivatives. The class given is cell-based. On the procedure: A cytotoxicity assay was quantitated using the Promega CellTiter Blue Cell Viability Assay. Briefly, cells (5000 cells/well) were plated onto 96-well microtiter plates in RPMI 1640 medium supplemented with 10% FBS and incubated at 37° C. in a humidified 5% CO2 atmosphere. After 24 hrs., cells were exposed to various concentrations of compound in DMSO and cultured for another 72 hrs. 100 ul of media were removed and 20 ul of Promega CellTiter Blue reagent were added to each well and shaken to mix. After 4 hours of incubation at 37° C. in a humidified 5% CO2 atmosphere, the plates were read at 544 ex/620 em. The fluorescence produced is proportional to the number of viable cells. After plotting fluorescence produced against drug concentration, the IC50 was calculated as the […] of the resulting non-linear regression.
Background: The colour change of resazurin is a common sign of viable cells or microbes.

Consider `Cc1nc(Cl)nc(Nc2ncc(C(=O)Nc3c(C)cccc3Cl)s2)n1` [Compound 4], for which the IC50 turned out to be 12.2 µM.

In the case of `Cc1nc(Nc2ncc(C(=O)Nc3c(C)cccc3Cl)s2)nc(N2CCN(CCO)CC2)n1` [Compound 5], the IC50 stood at 16 µM.

Regarding `Cc1nc(Nc2ncc(C(=O)Nc3c(C)cccc3Cl)s2)nc(N2CCN(c3ccncc3)CC2)n1` [Compound 6], the IC50 worked out at 2.6 µM.

With `Cc1nc(Nc2ncc(C(=O)Nc3c(C)cccc3Cl)s2)nc(N2CCN(C)CC2)n1` [Compound 7], the IC50 stood at 38.7 µM.

Regarding `Cc1nc(Nc2ncc(C(=O)Nc3c(C)cccc3Cl)s2)nc(N2CCOCC2)n1` [Compound 8], the IC50 is 58.1 µM.

For `Cc1nc(Cl)nc(Nc2ccc(Oc3ccc(Cl)cc3)cc2)n1` [Compound 9], the IC50 is 19.1 µM.

In the case of `Cc1nc(Nc2ccc(Oc3ccc(Cl)cc3)cc2)nc(N2CCN(CCO)CC2)n1` [Compound 10], the IC50 came to 14.1 µM.

Take `Cc1nc(Nc2ccc(Oc3ccc(Cl)cc3)cc2)nc(N2CCN(c3ccncc3)CC2)n1` [Compound 11]: the IC50 is 1.4 µM.

Consider `Cc1cccc(Cl)c1NC(=O)c1cnc(Nc2nc(Cl)nc(Nc3cnc(C(=O)Nc4c(C)cccc4Cl)s3)n2)s1` [Compound 12], for which the IC50 amounted to 237 µM.

`Cc1cccc(Cl)c1NC(=O)c1cnc(Nc2nc(Cl)nc(N3CCN(CCO)CC3)n2)s1` [Compound 13]: the IC50 was determined as 171 µM.

In the case of `Cc1cccc(Cl)c1NC(=O)c1cnc(Nc2nc(N3CCN(c4ccncc4)CC3)nc(N3CCN(c4ccncc4)CC3)n2)s1` [Compound 14], the IC50 turned out to be 131 µM.

The IC50 is the concentration needed to halve the response being measured.
